Test results taken from PubChem BioAssay (NCI).
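Protocol summary: plate cells (96-well), add compound at 5 concentrations, incubate 48 h, interpolate endpoints linearly. Abbreviation: GI50, concentration required for 50% inhibition of growth. At the TGI there is no net growth.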

Assays:
Test in all cases: NCI-60 cell line screen, 48 h
OVCAR-4 ovarian = system: OVCAR-4 ovarian
IGROV1 ovarian = system: IGROV1 ovarian
HT29 colon = system: HT29 colon
A549 NSCLC = system: A549 NSCLC
K-562 leukemia = system: K-562 leukemia
SK-MEL-2 melanoma = system: SK-MEL-2 melanoma
HS 578T breast = system: HS 578T breast
A498 renal = system: A498 renal
BT-549 breast = system: BT-549 breast
HL-60(TB) leukemia = system: HL-60(TB) leukemia

| SMILES | TGI (OVCAR-4 ovarian) [µM] | TGI (IGROV1 ovarian) [µM] | TGI (HT29 colon) [µM] | TGI (A549 NSCLC) [µM] | TGI (K-562 leukemia) [µM] | TGI (SK-MEL-2 melanoma) [µM] | TGI (HS 578T breast) [µM] | TGI (A498 renal) [µM] | TGI (BT-549 breast) [µM] | GI50 (IGROV1 ovarian) [µM] | GI50 (HL-60(TB) leukemia) [µM] | TGI (HL-60(TB) leukemia) [µM] | GI50 (A549 NSCLC) [µM] | GI50 (K-562 leukemia) [µM] | GI50 (SK-MEL-2 melanoma) [µM] | GI50 (HS 578T breast) [µM] | GI50 (A498 renal) [µM] | GI50 (BT-549 breast) [µM] | GI50 (OVCAR-4 ovarian) [µM] | GI50 (HT29 colon) [µM] |
| --- | --- | --- | --- | --- | --- | --- | --- | --- | --- | --- | --- | --- | --- | --- | --- | --- | --- | --- | --- | --- |
| COc1ccc(N2C(=O)CC(Cl)C2=O)cc1 (stereo unspecified) | 34.3 | > 100 | 31.7 | > 100 | 17.5 | > 100 | > 100 | > 100 | > 100 | – | – | – | – | – | – | – | – | – | – | – |
| Nc1c(C(=O)c2ccc(Cl)cc2)sc(Nc2ccccc2)c1-c1nc2ccccc2s1 | – | > 100 | – | > 100 | > 100 | 21 | 26.9 | 19.1 | 19.5 | 1.42 | > 57.3 | > 100 | > 100 | 3.1 | 3.89 | 2.56 | 3.67 | 2.29 | – | – |
| CC[C@H](NC(=O)[C@H](C)NC)C(=O)N1C[C@@H](O)C[C@H]1Cc1c(-c2[nH]c3cc(F)ccc3c2C[C@@H]2C[C@H](O)CN2C(=O)[C@H](CC)NC(=O)[C@H](C)NC)[nH]c2cc(F)ccc12 | – | – | > 100 | > 100 | > 100 | > 100 | > 100 | > 100 | > 41.8 | – | 7.15 | 42.9 | > 100 | 47.3 | 6.01 | > 23.7 | > 100 | 0.569 | 0.0598 | 62 |
| CCOC(=O)C(Cc1c[nH]c2ccc(N)cc12)(NC(C)=O)C(=O)OCC | > 1000 | > 1000 | > 1000 | > 1000 | > 1000 | – | > 1000 | – | > 1000 | > 1000 | 758 | > 1000 | > 1000 | > 1000 | – | > 1000 | – | 588 | > 1000 | > 1000 |
| Cn1ccnc1CC(C)(O)c1ccccc1 (stereo unspecified) | > 100 | > 100 | > 100 | > 100 | > 100 | > 100 | > 100 | > 100 | > 100 | – | – | – | – | – | – | – | – | – | – | – |
| COc1cc2c(cc1OCCCOc1cc3c(cc1OC)C(=O)N1C[C@H](F)C[C@H]1C=N3)N=C[C@@H]1C[C@@H](F)CN1C2=O | 31.7 | 5.88 | 41.9 | 28.5 | 12.7 | 5.71 | – | – | 17.9 | 1.89 | – | – | 13.6 | 2.98 | 2.04 | – | – | 3.36 | 16.2 | 17.3 |
| Cn1c([N+](=O)[O-])cnc1/C=C1\Oc2ccccc2C1=O | 7.45 | 5.87 | 0.629 | 5.12 | 7.02 | 0.663 | – | – | 4.17 | 0.6 | 0.28 | 1.5 | 1.02 | 0.487 | 0.255 | 1.15 | – | 0.659 | 2.05 | 0.203 |
| CCN(CC)CCC(=O)NC1c2ccc(Cl)cc2Oc2c(C)cccc21 (stereo unspecified) | 28.9 | 40 | 28.9 | 33.3 | 40.7 | – | – | – | 27.1 | – | – | 41.2 | – | – | – | – | – | – | – | – |
| CC(=O)Nc1ccc(C(=O)NN2C(=O)C(Cl)C2c2ccc(Cl)cc2)cc1 (stereo unspecified) | > 100 | > 100 | > 100 | > 100 | > 100 | > 100 | 41.6 | – | > 100 | – | – | > 100 | – | – | – | – | – | – | – | – |
| CC(O)c1cccc(NCc2c3ccccc3c(=O)n3c2oc2ccccc23)c1 (stereo unspecified) | – | 27 | > 100 | 24 | > 100 | 46.9 | 57.4 | 4.93 | 14.7 | 1.32 | > 100 | > 100 | 2.33 | > 100 | 6.31 | 4.43 | 1.61 | 3.95 | – | 35.6 |
| O=C(/C=C/c1ccc(F)cc1)c1ccc(Cl)cc1Cl | > 100 | > 100 | – | > 100 | > 100 | > 100 | > 100 | > 100 | 71.6 | > 100 | – | – | 33.5 | 33.9 | > 100 | 54.3 | > 100 | 27.2 | 82.9 | – |
| CC1(C)C2CCC3=C(CCC4(C)C5C[C@](C)(C(=O)O)CC[C@]5(C)CC[C@]34C)[C@@]2(C)CC[C@@H]1O (stereo partly specified) | 32.9 | 49.4 | 33 | 26.6 | 49 | – | 59.1 | 44.7 | 39.1 | – | – | 50.4 | – | – | – | – | – | – | – | – |
| Nc1ccc(N(S(=O)(=O)c2ccccc2)S(=O)(=O)c2ccccc2)c(Cl)c1 | > 100 | > 100 | > 100 | > 100 | > 100 | > 100 | > 100 | 98.2 | > 100 | – | – | – | – | – | – | – | – | – | – | – |
